According to US4681754A, “Counteracting cyclosporin organ toxicity” (Sandoz Ltd., priority 1984, dated 1987):

What was measured:
Format in all cases: in vivo
rats (F344×WF)FI = assay: Test 1: immuno-suppressive activity, local graft-versus-host (GVH) reaction in the rat; conditions: Cyclosporine alone p.o. on 4 successive days
Experimental: The test is carried out employing rats (F344×WF)FI sensibilized by injection into the hind-foot of spleen cells taken from .female. Wistar-Furth (WF) rats. The test animals are divided into groups of 8. […] GVH reaction is determined by measurement of increase in lymphe node weight compared with untreated controls.

OFI mice = assay: Test 2: immuno-suppressive activity, anti-body producing cell development in the mouse (PFC test); conditions: Cyclosporine alone p.o. on 3 successive days
Experimental: The test is carried out employing .female. OFI mice sensibilized by i.v. administration of ca. 1×10^8 sheep erythrocytes (SRBC). The test animals are divided into groups of 5.
The spleens are removed on day 4 and a cell suspension prepared and incubated with fresh SRBC antigen on soft agar. After addition of compliment, which, together with anti-body secreted from the sensibilized cells, dissolves SRBC in the vicinity of secreting cells, plaque development is counted and compared with results obtained employing untreated control mice.

OFA rats = assay: Test 3: anti-inflammatory activity, adjuvant arthritis in the rat; conditions: Cyclosporine alone p.o./day for 14 days
Experimental: For this test adjuvant arthritis is induced in accordance with the method described by Pearson and Wood, "Arthr. Rheum." 2, 440 (1959). OFA .female. rats are employed as test animals. […] Administration is effected in all cases on successive days for 14 days starting on day 1 after antigen administration and inflammatory reaction is determined on day 19 after antigen administration.

## Cyclosporine
Rats (F344×WF)FI
  ED50 for Cyclosporine, GVH reaction (increase in lymph node weight): 27 mg/kg
OFI mice
  ED50 for Cyclosporine, PFC test (plaque development): 40 mg/kg
OFA rats
  ED50 for Cyclosporine, adjuvant arthritis (inflammatory reaction day 19): 4.2 mg/kg
